The text below walks through data of ChEMBL document CHEMBL3044978, “Efficacy of acibenzolar-S-methyl and two strobilurins, azoxystrobin and trifloxystrobin, for the control of corky root of tomato and verticillium wilt of eggplant” (Crop Prot, 2006).

Calls of active or inactive are those of the source. The calls are words filed in the database; no cut-off is given here.

In data set [1] the test system is Verticillium dahliae. The data set is described as follows: Fungicidal activity against Verticillium dahliae infected eggplant assessed as wilted leaves after 80 days under greenhouse condition relative to untreated control. It counts as functional.
Data set [2] concerns Verticillium dahliae. Kind of data set: Fungicidal activity against Verticillium dahliae infected eggplant assessed as vascular discoloration applied as dipping of seedling roots into fungicide water suspension before transplanting and two soil drenches post transplanting after 120 days under field condition relative to untreated control. Type of data set: functional, organism-based.

The subject of data set [3] is Verticillium dahliae. The data set is described as follows: Fungicidal activity against Verticillium dahliae infected eggplant assessed as reduction in severity of external symptoms applied as dipping of seedling roots into fungicide water suspension before transplanting and one soil drench post transplanting after 80 to 120 days under field condition relative to untreated control. Type of data set: functional. Also noted: scale not given: the % may be the effect or the level left.

Data set [4] concerns Verticillium dahliae. Kind of data set: Fungicidal activity against Verticillium dahliae infected eggplant assessed as reduction in severity of external symptoms applied as dipping of seedling roots into fungicide water suspension before transplanting and two soil drenches post transplanting after 80 to 120 days under field condition relative to untreated control. Type of data set: functional. Also noted: scale not given: the % may be the effect or the level left.

For data set [5], the system named is Solanum lycopersicum. Kind of data set: Phytotoxicity in Solanum lycopersicum (tomato) plant assessed as plant stunting during early growth stage after 120 days under field condition. Type of data set: organism-based. The settings on record: in vivo, 2880 h.
For data set [6], the system named is Pseudopyrenochaeta lycopersici. The data set is described as follows: Fungicidal activity against Pyrenochaeta lycopersici infected tomato plant assessed as diseased root surface after 120 days under greenhouse condition relative to untreated control. Type of data set: functional.
For data set [7], the system named is Solanum melongena. The data set is described as follows: Phytotoxicity in Solanum melongena (eggplant) assessed as plant stunting after 80 days under greenhouse condition. It counts as organism-based. The settings on record: in vivo, 1920 h.
Data set [8] concerns Solanum melongena. Kind of data set: Phytotoxicity in Solanum melongena (eggplant) assessed as plant stunting during early growth stage after 80 to 120 days under field condition. Type of data set: organism-based. The settings on record: in vivo.
In data set [9] the test system is Verticillium dahliae. The data set is described as follows: Fungicidal activity against Verticillium dahliae infected eggplant assessed as vascular discoloration applied as dipping of seedling roots into fungicide water suspension before transplanting and one soil drench post transplanting after 120 days under field condition relative to untreated control. Type of data set: functional, organism-based.

Data set [10] has as its system Verticillium dahliae. Kind of data set: Fungicidal activity against Verticillium dahliae infected eggplant assessed as reduction in severity of external symptoms applied as one soil drench and two foliar sprays post transplanting after 80 to 120 days under field condition relative to untreated control. Type of data set: functional. Also noted: scale not given: the % may be the effect or the level left.

Data set [11] concerns Solanum lycopersicum. Kind of data set: Phytotoxicity in Solanum lycopersicum (tomato) plant assessed as plant stunting after 120 days under greenhouse condition. The settings on record: in vivo, 2880 h. It counts as organism-based.
For data set [12], the system named is Verticillium dahliae. The data set is described as follows: Fungicidal activity against Verticillium dahliae infected eggplant assessed as vascular discoloration applied as one soil drench and two foliar sprays post transplanting after 120 days under field condition relative to untreated control. It counts as functional, organism-based.
The test system of data set [13] is Pseudopyrenochaeta lycopersici. Kind of data set: Fungicidal activity against Pyrenochaeta lycopersici infected tomato plant assessed as diseased root surface applied as dipping of seedling roots into fungicide water suspension before transplanting and two soil drenches post transplanting after 100 days under field condition relative to untreated control. Type of data set: functional.

Data set [14] concerns Pseudopyrenochaeta lycopersici. Kind of data set: Fungicidal activity against Pyrenochaeta lycopersici infected tomato plant assessed as diseased root surface applied as one soil drench and two foliar sprays post transplanting after 100 days under field condition relative to untreated control. Type of data set: functional.
In data set [15] the test system is Pseudopyrenochaeta lycopersici. The data set is described as follows: Fungicidal activity against Pyrenochaeta lycopersici infected tomato plant assessed as diseased root surface applied as dipping of seedling roots into fungicide water suspension before transplanting and one soil drench post transplanting after 100 days under field condition relative to untreated control. Type of data set: functional.

Data set [16] deals with Solanum lycopersicum. The data set is described as follows: Phytotoxicity in Solanum lycopersicum (tomato) plant assessed as leaf chlorosis at 100 to 250 mg/l after 120 days under field condition. The settings on record: in vivo, 2880 h. It counts as organism-based.
Data set [17] concerns Pseudopyrenochaeta lycopersici. Kind of data set: Fungicidal activity against Pyrenochaeta lycopersici infected tomato plant assessed as diseased root surface at 100 to 250 mg/l after 100 days under field condition relative to untreated control. It counts as functional.
Data set [18] concerns Solanum lycopersicum. The data set is described as follows: Phytotoxicity in Solanum lycopersicum (tomato) plant assessed as plant stunting at 87.5 to 100 mg/l after 120 days under greenhouse condition. Type of data set: organism-based. Conditions: in vivo, 2880 h.
Data set [19] deals with Pseudopyrenochaeta lycopersici. The data set is described as follows: Fungicidal activity against Pyrenochaeta lycopersici infected tomato plant assessed as diseased root surface at 87.5 to 100 mg/l after 120 days under greenhouse condition relative to untreated control. It counts as functional.
Data set [20] relates to Verticillium dahliae. Kind of data set: Fungicidal activity against Verticillium dahliae infected eggplant assessed as wilted leaves at 87.5 to 100 mg/l after 80 days under greenhouse condition relative to untreated control. It counts as functional.
Data set [21] relates to Solanum melongena. Kind of data set: Phytotoxicity in Solanum melongena (eggplant) assessed as leaf chlorosis at 100 to 250 mg/l after 80 to 120 days under field condition. It counts as organism-based. The settings on record: in vivo.
The subject of data set [22] is Verticillium dahliae. The data set is described as follows: Fungicidal activity against Verticillium dahliae infected eggplant assessed as vascular discoloration at 100 to 250 mg/l after 120 days under field condition relative to untreated control. Type of data set: functional, organism-based.
The test system of data set [23] is Solanum melongena. The data set is described as follows: Phytotoxicity in Solanum melongena (eggplant) assessed as plant stunting at 87.5 to 100 mg/l after 80 days under greenhouse condition. The settings on record: in vivo, 1920 h. It counts as organism-based.
The test system of data set [24] is Verticillium dahliae. Kind of data set: Fungicidal activity against Verticillium dahliae infected eggplant assessed as reduction in severity of external symptoms at 100 to 250 mg/l after 80 to 120 days under field condition relative to untreated control. Type of data set: functional. Also noted: scale not given: the % may be the effect or the level left.
Data set [25] has as its system Solanum melongena. Kind of data set: Induction of systemic acquired resistance activity in Solanum melongena (eggplant) infected with Verticillium dahliae assessed as vascular discoloration at 12.5 mg/l after 120 days under field condition relative to untreated control. Type of data set: functional, organism-based.
In data set [26] the test system is Solanum melongena. The data set is described as follows: Induction of systemic acquired resistance activity in Solanum melongena (eggplant) infected with Verticillium dahliae assessed as reduction in severity of external symptoms at 12.5 mg/l after 80 to 120 days under field condition relative to untreated control. Type of data set: functional. Also noted: scale not given: the % may be the effect or the level left.

For data set [27], the system named is Solanum lycopersicum. The data set is described as follows: Induction of systemic acquired resistance activity in Solanum lycopersicum (tomato) plant infected with Pyrenochaeta lycopersici assessed as diseased root surface at 12.5 mg/l after 100 days under field condition relative to untreated control. Type of data set: functional.
Data set [28] deals with Solanum lycopersicum. The data set is described as follows: Phytotoxicity in Solanum lycopersicum (tomato) plant assessed as leaf chlorosis at 12.5 mg/l after 120 days under field condition. Type of data set: organism-based. Conditions: in vivo, 2880 h.
Data set [29] deals with Solanum melongena. The data set is described as follows: Phytotoxicity in Solanum melongena (eggplant) assessed as plant stunting at 12.5 to 87.5 mg/l after 80 days under greenhouse condition. Type of data set: organism-based. The settings on record: in vivo, 1920 h.
Data set [30] deals with Solanum melongena. Kind of data set: Phytotoxicity in Solanum melongena (eggplant) assessed as leaf chlorosis at 12.5 to 87.5 mg/l after 80 days under greenhouse condition. The settings on record: in vivo, 1920 h. Type of data set: organism-based.
Data set [31] relates to Solanum melongena. The data set is described as follows: Phytotoxicity in Solanum melongena (eggplant) assessed as leaf chlorosis at 12.5 mg/l after 80 to 120 days under field condition. It counts as organism-based. The settings on record: in vivo.
Data set [32] concerns Solanum lycopersicum. Kind of data set: Phytotoxicity in Solanum lycopersicum (tomato) plant assessed as plant stunting at 12.5 to 87.5 mg/l after 120 days under greenhouse condition. The settings on record: in vivo, 2880 h. It counts as organism-based.
The subject of data set [33] is Solanum lycopersicum. Kind of data set: Phytotoxicity in Solanum lycopersicum (tomato) plant assessed as leaf chlorosis at 12.5 to 87.5 mg/l after 120 days under greenhouse condition. Type of data set: organism-based. The settings on record: in vivo, 2880 h.

Turning to `CO/C=C(/C(=O)OC)c1ccccc1Oc1cc(Oc2ccccc2C#N)ncn1` [AZOXYSTROBIN], the Activity with Verticillium dahliae [1] is 95.1%; with Verticillium dahliae [3] it was 29.4%; in the data set with Verticillium dahliae [4] it was 24.6%; in the data set on Solanum lycopersicum [5] it was “Toxic”; in data set [6], 98.3%; with Solanum melongena [7] it was “Toxic”. For the same compound, the Activity result in the data set with Solanum melongena [8] is “Toxic”; with Verticillium dahliae [10], 24.6%; with Solanum lycopersicum [11] it was “Toxic”; in data set [13], 83.7%; in data set [14], 81.7%; in [15] it was 73.5%. Besides, the outcome in the data set with Verticillium dahliae [2], in the data set on Verticillium dahliae [9] and in the data set on Verticillium dahliae [12] was inactive.
In the case of `CO/N=C(\C(=O)OC)c1ccccc1CO/N=C(\C)c1cccc(C(F)(F)F)c1`, the Activity result in the data set with Solanum lycopersicum [16] is on record as “Non-toxic”; in [17], 48.7%; with Solanum lycopersicum [18], “Non-toxic”; in [19], 93.3%; in the data set with Verticillium dahliae [20] it was 78.1%; in the data set on Solanum melongena [21] it was “Non-toxic”. Besides, the Activity result is on record as “Non-toxic” with Solanum melongena [23] and 17.6% in the data set on Verticillium dahliae [24]. Besides, in the data set on Verticillium dahliae [22], the outcome was inactive.
Consider `CSC(=O)c1cccc2nnsc12` [ACIBENZOLAR-S-METHYL], for which the outcome in the data set on Solanum melongena [25] was inactive. The Activity in the data set on Solanum melongena [26] is reported as 6.9%; in the data set on Solanum lycopersicum [27], 62.7%; in the data set with Solanum lycopersicum [28], “Non-toxic”; with Solanum melongena [29] it was “Toxic”; in the data set on Solanum melongena [30], “Toxic”; in the data set with Solanum melongena [31], “Non-toxic”. Besides, the Activity entry in the data set with Solanum lycopersicum [32] and with Solanum lycopersicum [33] was “Toxic” throughout.
